Results reported in patent US5849494A, “Methods for sensitive detection of reverse transcriptase” (priority 1996, dated 1998).

Columns and labels:
RT of group M viruses = RT of group M viruses (HIV-1 M:B_HXB2R, UniProt P04585); settings: nevirapine at 100 μM; 21 group M reference isolates of A through F subtypes; culture supernatants
Procedure: (§1) To measure the sensitivity of group M and group O viruses to nevirapine (Boehringer Mannheim), the Amp-RT assay as described herein was used to measure the enzymatic activity of RT of these viruses in the presence or absence of the drug. Ten microliters of culture supernatants were added to 40 μl of RT buffer containing 10 ng of RNA template, 10 units of Rnasin (Promega, Wis.), 0.06% NP-40, 100 ng of the antisense primer EMCR2 (SEQ ID NO:2), 0.8 mM EGTA, 2 mM dithiothreitol, 50 mM Tris-HCl, 10 mM MgCl2 and 200 μM of each dNTP with or without 100 μM of nevirapine. The reaction was incubated at 37° C. for one hour and heated at 95° C. for ten minutes. The products of the RT reaction were PCR amplified for 35 cycles at 95° C. for one minute, 55° C. for one minute and 72° C. for one minute after the addition of 50 μl of PCR buffer containing 2.5 units of Taq polymerase, 100 ng of sense primer EMCF1': 5'[…]3' (SEQ ID NO:10). Twenty microliters of the reaction product was electrophoresed in 1.8% agarose gels and Southern blot hybridized to ^32 P-end labeled internal probe EMCP1 (SEQ ID NO:3). For qualitative detection, blots were exposed on autoradiographic film for 12-16 hours. For quantitative detection, blots were exposed for 3-6 hours and their radioactivities were read and measured by a Phosphor Imager (Model # 400E, Molecular Dynamics, Inc., CA). […]

[1] = molecular target: T1, RT of group O reference isolate MVP5180 (Human immunodeficiency virus type 1 group O, UniProt Q79666); assay: Amp-RT assay of RT activity of HIV-1 group O isolate with or without nevirapine; format: biochemical; settings: nevirapine at 100 μM, culture supernatant
T1 construct: measure the enzymatic activity of RT of these viruses
Procedure: as §1

RT in group O sera = molecular target: T2, RT in group O sera (HIV-1 O_MVP5180, UniProt Q79666); assay: Direct Amp-RT assay of sera from group O-infected persons with or without nevirapine; format: biochemical, HIV-1 group O; settings: 10 group O-infected persons; unprocessed 2 μl serum samples
T2 construct: Amp-RT with EMCV RNA template
Procedure: (§2) Plasma samples from 55 HIV-1 infected persons, ten seroconversion panels and 100 uninfected controls were studied. Two micoliter volumes of unprocessed plasma were tested in duplicate by the Amp-RT protocol as described above. The viral load was determined from a standard curve generated by known numbers of recombinant HIV-1 RT molecules and was expressed as equivalents of recombinant RT (rRT) molecules/ml. For comparison, RNA virus loads were also determined by the NASBA commercial assay (Organon).
(§3) To measure the sensitivity of group M and group O viruses to nevirapine (Boehringer Mannheim), the Amp-RT assay as described herein was used to measure the enzymatic activity of RT of these viruses in the presence or absence of the drug. Ten microliters of culture supernatants were added to 40 μl of RT buffer containing 10 ng of RNA template, 10 units of Rnasin (Promega, Wis.), 0.06% NP-40, 100 ng of the antisense primer EMCR2 (SEQ ID NO:2), 0.8 mM EGTA, 2 mM dithiothreitol, 50 mM Tris-HCl, 10 mM MgCl2 and 200 μM of each dNTP with or without 100 μM of nevirapine. […] For quantitative detection, blots were exposed for 3-6 hours and their radioactivities were read and measured by a Phosphor Imager (Model # 400E, Molecular Dynamics, Inc., CA). […]
(§4) Applicability to serum screening was evaluated in 10 group O-infected and 10 group M-infected persons.

RT in group M sera = RT in group M sera (HIV-1 M:B_HXB2R, UniProt P04585); settings: 10 group M-infected persons; unprocessed 2 μl serum samples
Procedure: as §2, §3, §4

Cc1ccnc2c1NC(=O)c1cccnc1N2C1CC1 [nevirapine]
Effect on Amp-RT activity of group M reference isolates (RT of group M viruses): inhibit | Sensitivity of group O reference isolate to nevirapine (Amp-RT) [1]: resistant | Amp-RT result of group O sera with nevirapine (RT in group O sera): Amp-RT positive in the presence and absence of nevirapine | Amp-RT result of group M sera with nevirapine (RT in group M sera): positive only in the absence of nevirapine
